Assay results taken from patent publication US20100003217A1, “Compounds and Pharmaceutical Compositions for the Treatment of Viral Infections” (priority 2008, published 2010).

Legend:
[1] = In vitro intracellular half-life of 2′-C-methyl guanosine-5′-triphosphate (Compound 7) in rat primary hepatocytes; format: in vitro ADME; conditions: primary hepatocytes (cellular extracts)
Procedure: (§1) Primary hepatocytes were incubated with 10 μM [^14C]-Compound 1 ([…]) or [^14C]-2′-C-methyl guanosine (127 DPM/μmol) for 24 hours at which time the incubation medium was removed and the cell monolayer carefully washed two times with warm (37° C.) PBS and placed back in culture with drug-free medium. At selected times up to 24 hours, the medium was removed and the cell monolayers carefully washed two times with ice-cold PBS. Following the last wash, all PBS was carefully removed and the cell monolayers processed and extracted as previously described. […]

[2] = tested on: rat primary hepatocytes; test: as above; format: in vitro ADME; conditions: for Decay of Compound 7: level in cellular extracts: rat hepatocytes Rs458, after 24 h incubation with 10 μM [^14C]-Compound 1
Procedure: as §1

[3] = Metabolite profile in rat plasma; format: in vivo, male Sprague-Dawley rats; conditions: rat terminal plasma, IV (2, 6, 24 h) and PO (6 h)
Procedure: Pooled terminal rat plasma samples were prepared for Group 1A, Group 1C, and Groups 2A-C. The pools were prepared by combining 1 mL of plasma from each of the four animals. Subsamples (2 mL each) of the pooled samples were transferred to 15-mL conical centrifuge tubes for extraction. To each subsample, 6 mL of methanol were added and each mixture was vortexed vigorously and then centrifuged at 5700×g for 15 minutes. The supernatant (extract 1) was transferred to a 15-mL tube. The pellets were further extracted with methanol (2 mL). Each sample was vortexed thoroughly to ensure mixing. The samples were centrifuged as described above. The supernatant (extract 2) was removed. The total volume of each extract was recorded. […] All extracts and reconstituted extracts were analyzed by LSC. Reconstituted extracts containing sufficient radioactivity were analyzed by HPLC.
Terminal plasma samples were pooled, extracted and prepared for HPLC analysis as described above. For Group 1, terminal plasma samples (2, 6, and 24 h) were pooled and analyzed by HPLC as described above. For Group 2, only the 6-h sample had sufficient radioactivity for analysis. […]

[4] = Cytotoxicity assay (MTS), Zluc cells; format: cell-based, human; conditions: human; Zluc cells, 3 days (Luciferase Assay columns)
Procedure: The cytotoxicity assay measures the viability of cells after treatment with a test compound for 3 days in either GS4.1 cells or Zluc cells. […] The cytotoxicity assay is summarized as follows. Ninety-six-well tissue culture plates were seeded with GS4.1 or Zluc cells. Antiviral compound solutions were made up freshly in medium as 2×-concentrated stocks. Eight additional 3-fold drug dilutions were prepared from these stocks in medium for a total of 9 dilutions. At least four hours after the cells were seeded, drug treatment was initiated by adding one volume of each 2×-concentrated drug dilution to one volume of cells/medium in the tissue culture plates. Cells were then incubated for 3 days at 37° C./5% CO2. After 3 days of treatment, the CellTiter 96® Aqueous One Solution cell proliferation assay (Promega) was performed by adding the MTS solution to each well. The plates were then incubated at 37° C./5% CO2 for 3.5 hours. Plates were then read in a Victor^3V 1420 multilabel counter (Perkin Elmer) and CC50 concentrations were determined using Microsoft Excel and XLfit 4.1 software.

[5] = molecular target: CYP2B6 (Homo sapiens, UniProt P20813); test: Incubation with human recombinant CYP450 supersomes, 2B6; format: in vitro ADME; conditions: CYP450 2B6 supersomes, 60 min, 10 μM, average of two experiments
Sequence of CYP2B6 (P20813 whole entry): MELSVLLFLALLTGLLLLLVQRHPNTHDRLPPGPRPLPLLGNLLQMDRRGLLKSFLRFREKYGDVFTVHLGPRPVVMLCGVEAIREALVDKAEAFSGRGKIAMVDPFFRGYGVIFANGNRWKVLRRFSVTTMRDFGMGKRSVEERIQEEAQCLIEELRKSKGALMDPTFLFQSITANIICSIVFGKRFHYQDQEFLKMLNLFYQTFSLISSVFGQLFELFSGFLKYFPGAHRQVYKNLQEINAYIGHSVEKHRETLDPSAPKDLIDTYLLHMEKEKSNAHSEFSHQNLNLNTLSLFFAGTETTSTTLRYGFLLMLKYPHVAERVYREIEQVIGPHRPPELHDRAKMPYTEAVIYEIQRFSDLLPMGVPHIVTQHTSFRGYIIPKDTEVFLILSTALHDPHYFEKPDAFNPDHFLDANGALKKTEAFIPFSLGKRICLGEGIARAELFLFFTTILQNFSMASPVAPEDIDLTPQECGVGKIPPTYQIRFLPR
Procedure: Supersomes—Incubations were conducted in a final volume of 0.1 mL reaction buffer (50-100 mM potassium phosphate, pH 7.4 or 100 mM Tris-HCL, pH 7.4) according to protocol provided with each CYP450 supersome. Each reaction contained […] of CYP450 supersome, 1.3 mM NADP^+, 3.3 mM glucose-6-phosphate, 0.4 U/mL glucose-6-phosphate dehydrogenase, 3.3 mM MgCl2 and 10 μM Compound 1. Following incubation for 60 min at 37° C., 100 μL of stop solution (acetonitrile:methanol; 1:1) was added and samples centrifuged for 10 min at 10,000×g. The supernatant was then dried and reconstituted in 10 mM potassium phosphate, pH 5, further transferred to an HPLC glass vial and analyzed by HPLC-UV (described above).

[6] = Radiochemical purity of the test article in dose formulations before and after dosing; format: physicochemical; conditions: PEG 200 with 5% DMSO
Procedure: Two dose formulations (50 mg/mL for the IV dose Groups 1A-C and 100 mg/mL for the PO dose Groups 2A-C) were prepared in PEG 200 containing 5% DMSO. Subsamples of the dose formulations were removed before and after the dose administration. An aliquot (10 μL) of each subsample was diluted by adding methanol (490 μL) and 20 mM ammonium formate in water (1500 μL). The diluted dose formulations were analyzed for determination of radiochemical purity by HPLC method 1.
Two dose formulations (50 mg/kg for the IV dose Groups 1A-C and 100 mg/kg for the PO dose Groups 2A-C) were prepared by the following procedure. Both formulations were prepared in PEG 200 containing 5% DMSO. The required amount of radioactive material was weighed and ground to a fine powder with a spatula. 30% of the final volume of PEG 200 and the weighed test article was added to a formulation vial while stirring under magnetic agitation to obtain a uniform formulation. The final volume was made up with PEG 200. The formulation was sonicated at room temperature for 15 minutes or longer to obtain homogenous suspension. The cycles of sonication/agitation were continued until the formulation was homogeneous. Triplicate aliquots were removed for determination of homogeneity (CV). The radioactivity concentration of the formulation was determined and specific activity was calculated.
The dose aliquots were analyzed by HPLC method 1 after diluting 10 μL of each formulation with 490 μL of methanol and 1.5 mL of the aqueous mobile phase.

[7] = Cytotoxicity (MTS assay), 184R-D2 cells; format: cell-based; conditions: human, 184R-D2 cells (S282T), 184R-D2 (S282T), N = 3
Procedure: Cells were plated and treated with inhibitors as described above.

[8] = rat hepatocytes, [^14C]-Compound 1 removed

C[C@@]1(O)[C@H](O)[C@@H](COP(=O)(O)OP(=O)(O)OP(=O)(O)O)O[C@H]1n1cnc2c(=O)[nH]c(N)nc21 [Compound 7, [(2R)-2-methyl-β-D-ribofuranosyl]guanine 5′-triphosphate]
half-life at 10 μM ([1]; rat hepatocytes Rs458, after 24 h incubation with 10 μM [^14C]-Compound 1, linear regression): 6.61 h
half-life at 10 μM ([1]; rat hepatocytes, following [^14C]-Compound 1): 6.61 h
Decay of Compound 7: level in cellular extracts ([2]; decay time 0 h): 932 pmol/million cells
Decay of Compound 7: level in cellular extracts ([2]; decay time 1 h): 954 pmol/million cells
Decay of Compound 7: level in cellular extracts ([2]; decay time 4 h): 811 pmol/million cells
Decay of Compound 7: level in cellular extracts ([2]; decay time 8 h): 545 pmol/million cells
Decay of Compound 7: level in cellular extracts ([2]; decay time 24 h): 83.0 pmol/million cells
Compound 7 levels after 24 hours without drug [2, 8]: 83 pmol/million cells
reduction of Compound 7 levels after 24 hours without drug [2, 8]: 91%
Compound 7 levels at time zero ([2]; rat hepatocytes, after 24 h with 10 μM [^14C]-Compound 1): 932 pmol/million cells

C[C@@]1(O)[C@H](O)[C@@H](CO)O[C@H]1n1cnc2c(=O)[nH]c(N)nc21 [2′-C-methyl guanosine, 9-(2-C-methyl-β-D-ribofuranosyl)guanine, reference compound]
Plasma metabolites detected [3]: only detectable metabolite

CC(C)(CO)C(=O)SCCOP(=O)(NCc1ccccc1)OC[C@H]1O[C@@H](n2cnc3c(=O)[nH]c(N)nc32)[C@](C)(O)[C@@H]1O (mixture of isomers) [Compound 1, 3-hydroxy-2,2-dimethyl-thiopropionic acid S-(2-{[(2R,3R,4R,5R)-5-(2-amino-6-oxo-1,6-dihydro-purin-9-yl)-3,4-dihydroxy-4-methyl-tetrahydro-furan-2-ylmethoxy]-benzylamino-phosphoryloxy}-ethyl) ester]
CC50 at 3 days [4]: > 100 µM
% Residual Compound 1 [5]: 108%
Radiochemical Purity of the test article in dose formulation (total of two isomers) ([6]; IV formulation, Groups 1A-C, Postdose): 99.1%
Radiochemical Purity of the test article in dose formulation (total of two isomers) ([6]; IV formulation, Groups 1A-C, Predose): 99.0%
Radiochemical Purity of the test article in dose formulation (total of two isomers) ([6]; PO formulation, Groups 2A-C, Postdose): 98.9%
Radiochemical Purity of the test article in dose formulation (total of two isomers) ([6]; PO formulation, Groups 2A-C, Predose): 98.6%
CC50 at 3 days [7]: > 100 µM
